In patent publication US8524740B2, “Synthesis and anticancer activity of aryl and heteroaryl-quinolin derivatives” (Tairx, Inc., priority 2010, dated 2013):

What was measured:
HL-60 = assay: MTT assay, HL-60 cells; format: cell-based; conditions: Homo sapiens
Experimental: (§1) MTT (3-(4,5-Dimethylthiazol-2-yl)-2,5-diphenyltetrazolium bromide) assays.^21,22 HL-60, HCT-116, Hep 3B, H460, Detroit 551 and HT29/FuR cells were treated with tested compounds for the indicated periods. After treatment, cells were washed once with PBS and incubated with MTT (Sigma, St. Louis, Mo., USA) for 2 h. The formazan precipitate was dissolved in 150 μL of DMSO, and the absorbance was measured with an ELISA reader at 570 nm.
(§2) HL-60, Hep 3B, H460, MES-SA, MES-SAID x5 and Detroit 551 cells were treated with vehicle or test compounds for 48 h. The cell growth rate was determined by MTT (3-(4,5-dimethyl-thiazol-2-yl)-2,5-diphenyltetrazoliun bromide) reduction assay.
as §1, with “assays.” for “assays.^21,22”, “HCT-116, A549,” for “HCT-116,”, “KB, Kb-VIN” for “H460, Detroit 551”, “DU145” for “HT29/FuR”
as §1, with “assays.” for “assays.^21,22”, “HL-60,” for “HL-60, HCT-116,”, “H460, A498, Colo205 and” for “H460,”, “551” for “551 and HT29/FuR”

HCT116 = assay: MTT assay, HCT-116 cells; format: cell-based; conditions: Homo sapiens
Experimental: as §1
as §1, with “assays.” for “assays.^21,22”, “HCT-116, A549,” for “HCT-116,”, “KB, Kb-VIN” for “H460, Detroit 551”, “DU145” for “HT29/FuR”

Hep3B = assay: MTT assay, Hep 3B cells; format: cell-based; conditions: Homo sapiens
Experimental: as §1, §2
as §1, with “assays.” for “assays.^21,22”, “HCT-116, A549,” for “HCT-116,”, “KB, Kb-VIN” for “H460, Detroit 551”, “DU145” for “HT29/FuR”
as §1, with “assays.” for “assays.^21,22”, “HL-60,” for “HL-60, HCT-116,”, “H460, A498, Colo205 and” for “H460,”, “551” for “551 and HT29/FuR”

A549 = assay: MTT assay, A549 cells; format: cell-based; conditions: Homo sapiens, Table 5
Experimental: as §1, with “assays.” for “assays.^21,22”, “HCT-116, A549,” for “HCT-116,”, “KB, Kb-VIN” for “H460, Detroit 551”, “DU145” for “HT29/FuR”

KB = assay: MTT assay, KB cells; format: cell-based; conditions: Homo sapiens, Table 5
Experimental: as §1, with “assays.” for “assays.^21,22”, “HCT-116, A549,” for “HCT-116,”, “KB, Kb-VIN” for “H460, Detroit 551”, “DU145” for “HT29/FuR”

Kb-VIN = assay: MTT assay, Kb-VIN cells; format: cell-based; conditions: Homo sapiens, KBVIN, Table 5
Experimental: as §1, with “assays.” for “assays.^21,22”, “HCT-116, A549,” for “HCT-116,”, “KB, Kb-VIN” for “H460, Detroit 551”, “DU145” for “HT29/FuR”

DU145 = assay: MTT assay, DU145 cells; format: cell-based; conditions: Homo sapiens, DU-145, Table 5
Experimental: as §1, with “assays.” for “assays.^21,22”, “HCT-116, A549,” for “HCT-116,”, “KB, Kb-VIN” for “H460, Detroit 551”, “DU145” for “HT29/FuR”

[1] = test system: Hep-3B human hepatocellular carcinoma xenograft; assay: In vivo antitumor activity assay, Hep3B xenograft nude mice; set-up: species or system Balb/c Nude mice; conditions: for Hep3B tumor growth suppression compared with doxorubicin: 7.5 mg/kg/day p.o., doxorubicin 10 mg/kg p.o.; for antitumor activity by i.v. route compared with p.o. route: i.v., 7.5, 15, 30 mg/kg qd; for inhibition of Hep3B tumor growth (dose and time dependence): p.o., 7.5, 15, 30 mg/kg/day
Experimental: The Hep-3B tumor cell line was purchased from American Type Culture Collection (ATCC™HB-8064, human hepatocellular carcinoma cells). The culture medium contained DMEM, 90%; Fetal Bovine Serum, 10% and 1% penicillin-streptomycin. The tumor cells were incubated in an atmosphere containing 5% CO2 at 37° C.
Balb/c Nude mice used in this study were male, 4-6 weeks age, weighing 18-20 g and provided by National Animal Center. All animals were housed in Individually Ventilated Cages Racks (IVC Racks, 36 Mini Isolator system) under Specific Pathogen-Free (SPF) condition throughout the experiment. Each cage (in cm, 26.7 length×20.7 width×14.0 height) was sterilized with autoclave and contained 8 mice, and then the animals were maintained in a hygienic environment under controlled temperature (20-24° C.) and humidity (40%-70%) with 12 hour light/dark cycle. The animals were given free access to sterilized lab chow and sterilized distilled water ad libilum. All aspects of this work, i.e., housing, experimentation and disposal of animals were performed in general accordance with the Guide for the Care and Use of Laboratory Animals (National Academy Press, Washington, D.C., 1996).
(§3) In the xenotraft tumor model of human hepatocellular carcinoma cell lines (Hep-3B, ATCC HB-8064) in male Balb/c Nude mice, the compounds 49 at doses at 7.5, 15 and 30 mg/kg (i.v. or p.o., bid) was administered five days per week for four consecutive weeks by p.o, or i.v. and ceased at Day 28. The compounds 52 at doses at 7.5, 15 and 30 mg/kg (i.v. or p.o., qd) was administered five days per week for four consecutive weeks and ceased at Day 28. The tumor size, body weight was monitored and recorded for 28 days. Human hepatocellular carcinoma cells (HEP-3B ATCC HB-8064) with 2×10^6 cells in 0.1 ml were injected subcutaneously into the right flank of the mice. When the tumor growth reached >100 mm^3 in volume (assumed as day 0), the tumor-bearing animals were assigned into several groups (8 animals in each group) for study.
(§4) The body weight and tumor size were measured and recorded every 7 days during the experimental periods of 28 days. Tumor volume (mm^3) was estimated according to the formula of length×[…]×0.5 in mm^3. Tumor growth inhibition was calculated as T/C (treatment/control) by the following formula: T/C=(Tn−T0)/(Cn−C0)×100% (T0: Tumor volume of treated group in Day 0; Tn: Tumor volume of treated group in Day n; C0: Tumor volume of control group in Day 0; Cn: Tumor volume of control group in Day n).
The Hep-3B tumor cell line was purchased from American Type Culture Collection (ATCC HB-8064, human hepatocellular carcinoma cells). A culture medium of 90% DMEM, 10% Fetal Bovine Serum, supplemented with 1% penicillin-streptomycin, was used. The tumor cells were incubated in an atmosphere containing 5% CO2 at 37° C.
Balb/c Nude mice used in this stud were male, 4-6 weeks age, weighing 18-20 g and provided by National Animal Center. All animals were housed in individually ventilated cages racks (IVC Racks, 36 Mini Isolator system) under specific pathogen-free (SPF) conditions throughout the experiment. Each cage (in cm, 26.7 length×20.7 width×14.0 height) was sterilized with autoclave and contained eight mice. The animals were maintained in a hygienic environment under controlled temperature (20-24° C.) and humidity (40% -70%) with a 12 hour light/dark cycle. The animals were given free access to sterilized lab chow and sterilized distilled water ad libitum. All aspects of this work, i.e., housing, experimentation and disposal of animals, were performed in general accordance with the Guide for the Care and Use of Laboratory Animals (National Academy Press, Washington, D.C., 1996). […]

[2] = Body weight monitoring in Hep3B xenograft nude mice; format: in vivo, Balb/c Nude mice; conditions: during the course of antitumor evaluation (28 days)
Experimental: as §3, §4
In the xenograft tumor model of human hepatocellular carcinoma cell lines (Hep-3B, ATCC HB-8064) in male Balb/c Nude mice, compound 147 prepared in 9% (w/v) NaHCO3 solution at doses of 7.5, 15 and 30 mg/kg -i.v.or p.o., qd) was administered five days per week for four consecutive weeks and ceased at Day 28. The tumor size and body weight were monitored and recorded for 28 days. Human hepatocellular carcinoma cells (HEP-3,ATCC HB-8064) with 2 ×10^6 cells in 0.1 mL were injected subcutaneously into the right flank of the mice. […]
The body weight and tumor size were measured and recorded every seven days during the experiment periods of 28 days. […]

H460 = assay: MTT assay, H460 cells; format: cell-based; conditions: Homo sapiens, NCI-H460
Experimental: as §1, §2
as §1, with “assays.” for “assays.^21,22”, “HL-60,” for “HL-60, HCT-116,”, “H460, A498, Colo205 and” for “H460,”, “551” for “551 and HT29/FuR”

Detroit 551 = assay: MTT assay, Detroit 551 normal human cells; format: cell-based; conditions: Detroit 551
Experimental: as §1, §2
as §1, with “assays.” for “assays.^21,22”, “HL-60,” for “HL-60, HCT-116,”, “H460, A498, Colo205 and” for “H460,”, “551” for “551 and HT29/FuR”

[3] = oral and intravenous administration (CHM-2133-P); cited from earlier work
[4] = previous report; cited from earlier work
MES-SA = assay: MTT assay, MES-SA cells; format: cell-based; conditions: Homo sapiens, 48 hrs
Experimental: as §2

MES-SA/Dx5 = assay: MTT assay, MES-SA/Dx5 cells; format: cell-based, human; conditions: for IC50: Homo sapiens, MES-SA/Dx5, 48 hrs; for Ratio Of SA/Dx5: IC50 MES-SA/Dx5 over IC50 MES-SA
Experimental: as §2

O=c1cc(-c2cccc3ccccc23)[nH]c2cc3c(cc12)OCO3 [Compound 151, 2-(1-Naphthalenyl)-6,7-methylenedioxyquinolin-4-one]
IC50 (HL-60; Table 5, MTT): 70 nM
IC50 (HCT116; Table 5): 70 nM
IC50 (Hep3B; Table 5, MTT): 70 nM
IC50 (A549): 130 nM
IC50 (KB): 130 nM
IC50 (Kb-VIN): 190 nM
IC50 (DU145): 130 nM

COc1ccc2nc(-c3cccc(F)c3)cc(OP(=O)(O)O)c2c1OP(=O)(O)O [Compound 49, 2-(3-Fluorophenyl)-6-methoxyquinoline-4,5-diyl bis(dihydrogen phosphate)]
antitumor activity compared with doxorubicin ([1]; 7.5 mg/kg i.v. or p.o., bid, doxorubicin 5 mg/kg i.v. qd, 10 mg/kg p.o. qd): exceeded that of doxorubicin
antitumor activity (dose and time dependence) ([1]; 7.5, 15 and 30 mg/kg, i.v. or p.o., bid, five days per week for four weeks): dose- and time-dependent manner
body weight changes [2]: no significant body weight changes

COc1ccc2[nH]c(-c3cccc(F)c3)cc(=O)c2c1OP(=O)(O)O [Compound 52, 2-(3-Fluorophenyl)-6-methoxy-4-oxo-1,4-dihydroquinolin-5-yl dihydrogen phosphate]
Hep3B tumor growth suppression compared with doxorubicin [1]: Significant tumor growth suppression
tumor suppression ([1]; 30 mg/kg/day oral dosing): Near complete tumor suppression
antitumor activity by i.v. route compared with p.o. route [1]: slight better antitumor activity
inhibition of Hep3B tumor growth (dose and time dependence) [1]: dose- and time-dependent inhibition
body weight changes [2]: no significant body weight changes

O=c1cc(-c2ccccc2F)[nH]c2cc3c(cc12)OCO3 [CHM-2133, 2-(2-fluorphenyl)-6,7-methylenedioxyquinolin-4-one, reference compound]
IC50 (HL-60; Table 1, 48 h, MTT): 80 nM
IC50 (HCT116; Table 1, 48 h): 150 nM
IC50 (Hep3B; Table 1, 48 h, MTT): 130 nM
IC50 (H460; Table 1, 48 h, MTT): 140 nM
IC50 (Detroit 551; Table 1, 48 h, MTT, normal human cell): 8200 nM
antitumor activity in vivo (earlier work) [3]: excellent antitumor activity

O=P(O)(O)Oc1cc(-c2ccccc2F)nc2cc3c(cc12)OCO3 [CHM-2133-P]
antitumor activity in vivo (earlier work) [3]: excellent antitumor activity
bio-conversion following administration [4]: rapid bio-conversion into its active molecule CHM-2133

O=c1cc(-c2cccc(OP(=O)(O)O)c2)[nH]c2ccc(N3CCCC3)cc12 [Compound 147, 3-(4-Oxo-6-(pyrrolidin-1-yl)-1,4-dihydroquinolin-2-yl)phenyl dihydrogen phosphate]
Hep3B tumor growth suppression compared with doxorubicin [1]: exceed that of 10 mg/kg doxorubicin
weight of Hep3B tumor relative to control ([1]; 30 mg/kg p.o., % of that of the control): 26.3%
antitumor activity by i.v. route compared with p.o. route [1]: slightly greater activity
inhibition of Hep3B tumor growth (dose and time dependence) [1]: dose- and time-dependent inhibition
body weight changes [2]: no significant body weight changes

O=c1cc(-c2coc3ccccc23)[nH]c2cc3c(cc12)OCO3 [Compound 156, 2-(3-Benzo[b]furyl)-6,7-methylenedioxyquinolin-4-one]
IC50 (HL-60; Table 5, MTT): 30 nM
IC50 (HCT116; Table 5): 50 nM
IC50 (Hep3B; Table 5, MTT): 90 nM
IC50 (A549): 2980 nM
IC50 (KB): 1050 nM
IC50 (Kb-VIN): 590 nM
IC50 (DU145): 1870 nM

O=C1CC(c2cccc(O)c2)=Nc2ccc(N3CCOCC3)cc21 [Compound 137, 2-(3-Hydroxyphenyl)-6-morpholinoquinolin-4-one]
IC50 (HL-60; Table 2, B-1 series, 48 hrs): 230 nM
IC50 (Hep3B; Table 2, B-1 series, 48 hrs): 11500 nM
IC50 (H460; Table 2, B-1 series, 48 hrs): 24800 nM
IC50 (Detroit 551; Homo sapiens, Table 2, B-1 series, 48 hrs): 10000 nM
IC50 (MES-SA; Table 2, B-1 series): 3610 nM
IC50 (MES-SA/Dx5; Table 2, B-1 series): 7300 nM
Ratio Of SA/Dx5 (MES-SA/Dx5; Table 2, B-1 series): 2.02
melting point: 357 to 360 °C

COc1cccc(C2=Nc3ccc(N4CCCC4)cc3C(=O)C2)c1OC [Compound 127, 2-(2,3-Dimethoxyphenyl)-6-pyrrolidinoquinolin-4-one]
IC50 (HL-60; Table 3, B-2 series, 48 hrs): 530 nM
IC50 (Hep3B; Table 3, B-2 series, 48 hrs): 1200 nM
IC50 (H460; Table 3, B-2 series, 48 hrs): 1780 nM
IC50 (Detroit 551; Homo sapiens, Table 3, B-2 series, 48 hrs): > 20000 nM
IC50 (MES-SA; Table 3, B-2 series): 802 nM
IC50 (MES-SA/Dx5; Table 3, B-2 series): 1710 nM
Ratio Of SA/Dx5 (MES-SA/Dx5; Table 3, B-2 series): 2.13
melting point: 258 to 260 °C
